Reference: patent US20070037194A1, “Allelic variation in the serotonin transporter (SERT) as an indicator of autism” (priority 2005, published 2007)

Legend:
SERT Ala56 = assay type: cell-based, human; details: homozygous Ala56 cells preincubated for various times at 37° C. with 10 μM 8BrcGMP
Description: (§1) Homozygous Ala56 cells (10^6/tube) were preincubated for various times at 37° C. with 10 μM 8BrcGMP prior to [^3H]5-HT transport assays.
(§2) Functional Analysis of Gly56Ala Activity and Regulation. EBV-transformed lymphocyte cell lines from AGRE or Tufts/Vanderbilt autism families carrying either the Gly56 or 56Ala alleles were obtained from the NIMH Human Genetics Initiative Repository (www.nimhgenetics.org/) at Rutgers University. […] Lymphocytes were pelleted at 1500 rpm, 5 min and washed with KRH assay buffer. A total of 1×10^6 cells in triplicate were pre-warmed (37° C.) in a shaking water bath (10 min) in 12×75 polypropylene tubes in KRH buffer containing 100 μM pargyline and 100 μM ascorbic acid. After a 5-min incubation with [^3H]5-HT (20 nM) at 37° C., uptake assays were terminated by immersion on ice, and uptake in pelleted, 1% SDS-extracted cells quantitated by scintillation spectrometry. Specific 5-HT uptake was determined by subtracting the amount of [^3H]5-HT accumulated in the presence of 10 μM paroxetine (SmithKline Beecham). [^3H]L-glutamate transport assays were conducted as described for [^3H]5-HT except using 100 nM substrate and defining nonspecific uptake with parallel accumulation acquired at 4° C.

Gly56 SERT = assay type: cell-based, human; details: coincubation with PKG inhibitor H8 at 10 μM; data not shown
Description: as §1, §2

Row | Compound | sensitivity of SERT Ala56 [3H]5-HT transport to 8BrcGMP (SERT Ala56) | block of 8BrcGMP effects on Gly56 SERT (Gly56 SERT)
1 | Nc1nc2c(nc(Br)n2[C@@H]2O[C@@H]3COP(=O)(O)O[C@H]3[C@H]2O)c(=O)[nH]1 [8BrcGMP] | lacks sensitivity | –
2 | CNCCNS(=O)(=O)c1cccc2cnccc12 [H8] | – | completely blocked
